These results are taken from patent US5407823A, “Polypeptides having a dopaminergic receptor activity, nucleic acids coding for these polypeptides and use of these polypeptides for the screening of substances active on these polypeptides” (priority 1990, dated 1995).

Like-named read-outs stand apart in the source and are kept apart here.

A word on the Kd: it is the constant that tells how readily two partners part at equilibrium. Higher therefore signals weaker binding. A word on the Ki: it is a dissociation constant, usually derived from enzyme kinetics or from competition with a known ligand.

The target in test [1] is T1, D-3 receptor expressed in CHO cells (Rattus norvegicus, UniProt P19020).
T1 construct: expressed in transfected cells
As to the kind of experiment: Inhibition of 125I-iodosulpride binding to membranes of transfected CHO cells (D-3). Conditions: for Ratio Ki D-2/Ki D-3: D-2 and D-3 receptors expressed in CHO cells. The text has this:
(§1) As far as the measurement of the affinity of the agonists or antagonists towards the polypeptides of the invention is concerned, it may be made under the following conditions:
(§2) The terms agonists and antagonists refer to the actions of the medicines on the D-2 receptors.
(§3) The β2 adrenergic receptor is excised from pSV β2 -MDH by digestions with HindIII and EcoRI and replaced by a SmaI-EcoRI restriction fragment of the clone of the D-2A receptor by using a blunt-ended HindIII nucleotide adaptor leading to the plasmid pSV D-2. The vector needed to express the D-3 receptor is obtained by replacing the HindIII-BglII restriction fragment of pSV D-2 by a EcoRI-BglII restriction fragment of the clone RT-PCR B, by using a HindIII-EcoRI oligonucleotide adaptor leading to the plasmid pSV D-3. […] The stable transfectants are selected in a culture medium (Dulbecco's Modified Eagle medium) not containing hypoxanthine and thymidine.

Test [2] concerns the target T2, D-2 receptor expressed in CHO cells (Rattus norvegicus, UniProt P61169).
T2 construct: expressed in transfected cells
As to the kind of experiment: Inhibition of 125I-iodosulpride binding to membranes of transfected CHO cells (D-2). The following applies: for Kd: saturation kinetics at equilibrium, permanently transfected CHO cells.
Excerpt: as §1, §2, §3

Test [3] has as its system D-2 receptor. As to the kind of experiment: 7 OHDPAT-3H specific binding to membranes of CHO cells expressing the D-2 receptor. Set-up: species or system rat. Conditions: increasing concentrations of radioligand.
Where [4] appears, read: competition with 125I-iodosulpride, CHO cell membranes, mean ± standard deviation, 2-3 experiments, read-out: Ki Value D-3 receptor.
The mark [5] stands for this setting: competition with 125I-iodosulpride, CHO cell membranes, mean ± standard deviation, 2-3 experiments, read-out: Ki Value D-2 receptor.

T2 sequence (P61169 whole entry): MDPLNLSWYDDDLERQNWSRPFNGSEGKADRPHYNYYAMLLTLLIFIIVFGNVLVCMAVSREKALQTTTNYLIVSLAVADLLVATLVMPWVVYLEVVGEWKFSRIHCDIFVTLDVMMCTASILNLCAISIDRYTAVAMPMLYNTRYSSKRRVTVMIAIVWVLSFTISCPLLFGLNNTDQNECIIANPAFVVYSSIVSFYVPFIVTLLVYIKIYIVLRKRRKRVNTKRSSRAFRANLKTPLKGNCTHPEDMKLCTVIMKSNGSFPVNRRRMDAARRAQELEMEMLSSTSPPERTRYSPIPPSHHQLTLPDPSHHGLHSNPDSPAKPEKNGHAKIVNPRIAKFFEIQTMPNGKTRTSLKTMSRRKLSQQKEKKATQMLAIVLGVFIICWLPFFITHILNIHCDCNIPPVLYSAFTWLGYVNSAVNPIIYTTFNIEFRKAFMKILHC
T1 sequence (P19020 whole entry): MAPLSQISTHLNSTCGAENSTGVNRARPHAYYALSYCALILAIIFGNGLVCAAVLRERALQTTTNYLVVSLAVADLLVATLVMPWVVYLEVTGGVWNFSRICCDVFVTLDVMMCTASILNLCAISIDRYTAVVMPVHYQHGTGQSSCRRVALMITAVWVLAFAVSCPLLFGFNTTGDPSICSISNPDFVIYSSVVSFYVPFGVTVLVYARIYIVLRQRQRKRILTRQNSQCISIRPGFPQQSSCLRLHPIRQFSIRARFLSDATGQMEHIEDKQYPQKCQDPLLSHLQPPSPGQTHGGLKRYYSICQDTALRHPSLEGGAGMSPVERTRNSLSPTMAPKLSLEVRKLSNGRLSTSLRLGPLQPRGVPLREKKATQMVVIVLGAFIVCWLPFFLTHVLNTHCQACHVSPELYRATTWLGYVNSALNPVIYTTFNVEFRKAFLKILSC

For the compound Iodosulpride, the “Ratio Ki D-2/Ki D-3” value in test [1] is on record as 0.52. Besides, the Kd stood at 1.2 ± 0.2 nM in test [1] (saturation kinetics at equilibrium, permanently transfected CHO cells); 0.61 ± 0.05 nM in test [2]; 0.6 nM in test [2] (listed as 125 I-iodosulpride).
Turning to `CN1CCN(CCCN2c3ccccc3Sc3ccc(S(=O)(=O)N(C)C)cc32)CC1` [Thioproperazine], the Ki in test [1] (setting [4]) was found to be 1.7 ± 0.1 nM; in test [2] (setting [5]), 0.21 ± 0.01 nM.
In the case of `CCCN[C@@H]1CCc2c(OC)cccc2[C@@H]1C` [(+)AJ 76], in test [1], the “Comparison of affinities for D-2 and D-3 receptors (in words)” value (“Comparison of affinities” below) is given as “somewhat but significantly higher affinities for the D-3 receptor than the D-2 receptor”; the “Ratio Ki D-2/Ki D-3” value amounted to 3.0. In addition, the Ki in test [1] (setting [4]) was determined as 91 ± 5 nM. The same compound showed a Ki in test [2] of 270 ± 14 nM.
Regarding `CCN1CCC[C@H]1CNC(=O)c1c(O)c(Cl)cc(Cl)c1OC` [Raclopride], the inhibition constant (Ki) in test [1] (setting [4]) is 3.5 ± 0.3 nM.
In the case of `CN(C)C1CCc2cc(O)c(O)cc2C1` (stereo not drawn) [TL 99], in test [1], the “Comparison of affinities” value is “much less affinity for the D-3 receptor than for the D-2 receptor”.
The same measure, in the same setting: the same measure for `CCCN1C[C@H](CSC)C[C@@H]2c3cccc4[nH]cc(c34)C[C@H]21` [Pergolide]: “much less affinity for the D-3 receptor than for the D-2 receptor”.
For `CCCN(CCC)[C@@H]1CCc2c(OC)cccc2[C@@H]1C` [(+)UH 232], in test [1], the “Comparison of affinities” value is reported as “somewhat but significantly higher affinities for the D-3 receptor than the D-2 receptor”; the Ki worked out at 9.2 ± 0.1 nM; the “Ratio Ki D-2/Ki D-3” value amounted to 4.4. This compound also gave a Ki in test [2] of 40 ± 1 nM.
Take `NCCc1ccc(O)c(O)c1` [Dopamine]: the “Effect of Gpp(NH)p on displacement curve, D-2 receptor” value in test [2] (presence of Gpp(NH)p) was “shifted to the right”.
For `Oc1cc2c(cc1O)C(c1ccccc1)CNCC2` (stereo not drawn) [SKF 38393], in test [1], affinity was put at a Ki of 5000 nM.
For the compound `CN1CCc2cccc3c2[C@H]1Cc1ccc(O)c(O)c1-3` [Apomorphine], in test [1] (read-out: Ki Value D-3 receptor), the Ki came to 20 ± 3 nM.
Take `CC(C)C[C@H]1C(=O)N2CCC[C@H]2[C@]2(O)O[C@](NC(=O)[C@@H]3C=C4c5cccc6[nH]c(Br)c(c56)C[C@H]4N(C)C3)(C(C)C)C(=O)N12` [Bromocriptine]: the “Ratio Ki D-2/Ki D-3” value in test [1] is on record as 0.7. In addition, the inhibition constant Ki in test [1] (setting [4]) turned out to be 7.4 ± 1.3 nM; in test [2] (setting [5]), 5.3 ± 0.6 nM.
For `CCCN(CCC)C1CCc2ccc(O)cc2C1` (stereo not drawn) [7 OHDPAT-^3 H, 7-hydroxy N,N'-dipropylaminotetraline radiolabelled with tritium], in test [3], the “Binding to membranes of cells expressing the D-2 receptor” value was “only very slightly”.
